For two compounds, IC50 results are on record in BindingDB's records for doi:10.1016/j.bmcl.2004.09.002 (A.V. Bogatsky Physico-Chemical Institute of The National …, 2004).

The experiment is described as follows: In vitro inhibition of human platelet aggregation in suspension.

Each structure is given as a SMILES string. Structures can show the parent of a compound that is named as a salt.

On to `O=C(O)CC(NC(=O)CCC(=O)Nc1ccc2c(c1)CNC2)c1ccccc1` (configuration not stated) [3-[3-(2,3-Dihydro-1H-isoindol-5-ylcarbamoyl)-propionylamino]-3-phenyl-propionic acid; hydrochloride], for which the midpoint of inhibition, the IC50, lay at 270 nM.

As for `O=C(O)CCNC(=O)CCC(=O)Nc1ccc2c(c1)CNC2` [3-[3-(2,3-Dihydro-1H-isoindol-5-ylcarbamoyl)-propionylamino]-propionic acid; hydrochloride], the IC50 (commonly the concentration that inhibits the measured activity by half) worked out at 2090 nM.
